Test results taken from patent US20160157490A1, “COMPOSITIONS COMPRISING A GERMINANT AND AN ANTIMICROBIAL AGENT” (priority 2010, published 2016).

Tested on: C. difficile spores
Experiment: Germination efficacy testing of germinant solution with antimicrobial and preservative (neutraliser, heat shock or ice)
Type: cell-based
Details: for effect on the germinant solution / germination: antimicrobial added to germinant solution; for initiation of germination / sporicidal activity: without amino acids and taurocholate
Experimental: The solution was heated and mixed thoroughly to dissolve all of the components before filtration through a pore size of 0.2 μm for sterilization. (This solution is double the working strength as it is diluted 1:2 during the experiment).
The pH was adjusted to 7 and was autoclaved to sterilize.
For the control, 100 μL of sterilized distilled water was mixed with 100 μL of C. difficile spore suspension. Spore suspensions were also incubated with solutions containing benzalkonium chloride and Tris buffer (without amino acids or taurocholate), benzyl alcohol with Tris buffer (without amino acids and taurocholate) and a solution containing the five amino acids and taurocholate (with no antimicrobials). […] (miniMACS Anaerobic Workstation (Don Whitley Scientific Ltd)).

For `O=C(O)CN(CCN(CC(=O)O)CC(=O)O)CC(=O)O` [EDTA], which “effect on the germinant solution / germination” value is on record?
The value was “inhibit the germinant solution”.

What does the source list for `OCc1ccccc1` [benzyl alcohol]?
effect on the germinant solution / germination: do not affect germination; initiation of germination: did not initiate germination; sporicidal activity: not sporicidal

Which “effect on the germinant solution / germination” value does the source give for `N=C(NCCCCCCNC(=N)NC(=N)Nc1ccc(Cl)cc1)NC(=N)Nc1ccc(Cl)cc1.O=C(O)[C@H](O)[C@@H](O)[C@H](O)[C@H](O)CO.O=C(O)[C@H](O)[C@@H](O)[C@H](O)[C@H](O)CO` [cholorohexidine] here?
Its value is “inhibit the germinant solution”.

What does the source list for benzalkonium chloride?
effect on the germinant solution / germination: do not affect germination; initiation of germination: did not initiate germination; sporicidal activity: not sporicidal
